Patent US9018229B2, “Quinolone compound and pharmaceutical composition” (Otsuka Pharmaceutical Co., Ltd., priority 2008, dated 2015)
Where a name gives a salt, the structure may show the parent alone.

How the values were obtained:
[1] = tested on: human neuroblastoma cell lines SH-SY5Y treated with 1-methyl-4-phenylpyridinium (MPP+); experiment: Improvement of mitochondrial dysfunction in MPP+-treated SH-SY5Y cells (mitochondrial oxidation reduction activity, Alamar Blue); format: cell-based; settings: 1.5 mM MPP+, relative to cells in DMSO alone = 100%, read-out: Fluorescence Intensity (%); for activity at 0.01 µg/mL: test compound 0.01 μg/ml; for activity at 0.03 µg/mL: test compound 0.03 μg/ml; for activity at 0.1 µg/mL: test compound 0.1 μg/ml; for activity at 0.3 µg/mL: test compound 0.3 μg/ml; for activity at 1 µg/mL: test compound 1 μg/ml
Method: Evaluation of the Improvement of Mitochondrial Dysfunction Using Human Neuroblastoma Cell Lines SH-SY5Y Treated with 1-methyl-4-phenylpyridinium (MPP^+)
In human neuroblastoma cell lines SH-SY5Y in which mitochondrial activity was injured by MPP^+ treatment (Bollimuntha S. et al., J Biol Chem, 280, 2132-2140 (2005) and Shang T. et al., J Biol Chem, 280, 34644-34653 (2005)), the improvement of mitochondrial dysfunction was evaluated on the basis of measurement values for mitochondrial oxidation reduction activity using Alamar Blue fluorescent dye after the compound addition (Nakai M. et al, Exp Neurol, 179, 103-110 (2003)).
The human neuroblastoma cell lines SH-SY5Y were cultured in Dulbecco's Modified Eagle's Medium containing 10% fetal bovine serum (DMEM containing 50 units/ml penicillin and 50 μg/ml streptomycin as antibiotics) at 37° C. in the presence of 5% carbon dioxide. Cells were scattered on a poly-D-lysine-coated 96-well black plate at a concentration of 3−6×10^4 cells/cm^2 (medium amount: 100 μl/well), and cultured in the above medium for two days. Further, the medium was changed to DMEM containing a 1% N2 supplement (N2-DMEM) or to a medium (100 μl/well) in which 1.5 mM MPP^+ was dissolved. The cells were cultured therein for 39 to 48 hours, and then subjected to a mitochondrial oxidation reduction activity measurement system. A sample compound that had been previously dissolved in dimethyl sulfoxide (DMSO) was diluted with N2-DMEM, and added in a volume of 10 μl/well 24 hours before the activity measurement (final compound concentration: 0.01 to 1 μg/ml).
After removal of the medium by suction, a balanced salt solution containing 10% Alamar Blue (154 mM sodium chloride, 5.6 mM potassium chloride, 2.3 mM calcium chloride, 1.0 mM magnesium chloride, 3.6 mM sodium bicarbonate, 5 mM glucose, 5 mM HEPES, pH 7.2) was added in a volume of 100 μl/well, and reacted in an incubator at 37° C. for 1 hour. The fluorescent intensity was detected using a fluorescence detector (a product of Hamamatsu Photonics K.K., excitation wavelength 530 nm, measurement wavelength 580 nm) to thereby measure the mitochondrial oxidation reduction activity.
The fluorescent intensity of the well of the cells cultured in a medium containing MPP^+ and in each of the sample compounds was relatively evaluated based on the 100% fluorescent intensity of the well of the cells cultured in a medium containing DMSO alone (final concentration: 0.1%).

Row | Structure (SMILES) | melting point [°C] | activity at 0.01 µg/mL [1] [%] | activity at 0.03 µg/mL [1] [%] | activity at 0.1 µg/mL [1] [%] | activity at 0.3 µg/mL [1] [%] | activity at 1 µg/mL [1] [%]
1 | CCCOc1cc2ccccc2c2c(=O)c(-c3ccc(OC)cc3)c[nH]c12 | 172 to 174 | – | – | – | – | –
2 | CCCOc1ccc(F)c2c(=O)c(-c3ccc(OC)cc3)c(CN3CCN(c4ccccn4)CC3)[nH]c12 | 211 to 212 | – | – | – | – | –
3 | CCCOc1cc2ccccc2c2c(=O)c(-c3ccoc3)c[nH]c12 | 252 to 254 | – | – | – | – | –
4 | CCCOc1ccc(F)c2c(=O)c(-c3ccc(Cl)cc3Cl)cn(COP(=O)([O-])[O-])c12.[Na+].[Na+] | 208 to 210 | – | – | – | – | –
5 | CCCOc1cc2ccccc2c2c(=O)c(-c3ccoc3)cn(C)c12 | 165 to 167 | – | – | – | – | –
6 | CCCOc1cc2ccccc2c2c(=O)c(-c3ccc(OC)cc3)c(C)[nH]c12 | 204 to 206 | – | – | – | – | –
7 | CCCOc1cc2ccccc2c2c(=O)c(-c3ccsc3)cn(C)c12 [Example 7, 4-methyl-5-propoxy-2-thiophen-3-yl-4H-benzo[f]quinolin-1-one] | – | 66 | 71 | 78 | 80 | 75
8 | CCCOc1cc2c(c3c(=O)c(-c4ccsc4)c[nH]c13)CCC2 [Example 12, 5-propoxy-8-thiophen-3-yl-1,2,3,6-tetrahydro-6-aza-cyclopenta[a]naphthalen-9-one] | – | 80 | 74 | 83 | 82 | 68
9 | CCCOc1cc2c(c3c(=O)c(-c4ccc(OC)cc4)cn(COP(=O)(O)O)c13)OCCC2 [Example 36, [3-(4-methoxyphenyl)-4-oxo-10-propoxy-7,8-dihydro-4H,6H-5-oxa-1-aza-phenanthren-1-ylmethyl]monophosphate disodium salt] | – | 69 | 67 | 86 | 90 | 89
10 | CCCOc1cc2c(c3c(=O)c(-c4ccc(OC)cc4)c(C)[nH]c13)OCC2 [Example 48, 8-(4-methoxyphenyl)-7-methyl-5-propoxy-3,6-dihydro-2H-flo[2,3-f]quinolin-9-one] | – | 60 | 81 | 92 | 93 | 80
11 | COc1ccc(-c2c[nH]c3c4c(cc(C)c3c2=O)CCO4)cc1 [Example 57, 7-(4-methoxyphenyl)-5-methyl-2,3-dihydro-9H-flo[3,2-h]quinolin-6-one] | – | 64 | 65 | 68 | 74 | 65
12 | CCCOc1cc2cnccc2c2c(=O)c(-c3ccc(OC)cc3)cn(CC(=O)NCCN3CCOCC3)c12 [Example 69, 2-[9-(4-methoxyphenyl)-10-oxo-6-propoxy-10H-[3,7]phenanthrolin-7-yl]-N-(2-morpholin-4-ylethyl)acetamide] | – | 78 | 64 | 68 | 67 | 65
13 | COc1ccc(-c2c[nH]c3c(OCC(=O)NCCN4CCOCC4)ccc(F)c3c2=O)cc1 [Example 139, 2-[5-fluoro-3-(4-methoxyphenyl)-4-oxo-1,4-dihydro-quinolin-8-yloxy]-N-(2-morpholin-4-ylethyl)acetamide] | – | 53 | 58 | 57 | 60 | 55
14 | CCCOc1ccc(F)c2c(=O)c(-c3ccc(C(=O)N4CCC(N5CCOCC5)CC4)cc3)c[nH]c12 [Example 163, 5-fluoro-3-[4-(4-morpholin-4-yl-piperidine-1-carbonyl)phenyl]-8-propoxy-1H-quinolin-4-one] | – | 61 | 61 | 63 | 60 | 63
15 | CCCOc1ccc(F)c2c(=O)c(-c3ccc(OC)cc3)c(C(=O)NCCN3CCOCC3)[nH]c12 [Example 171, 5-fluoro-3-(4-methoxyphenyl)-4-oxo-8-propoxy-1,4-dihydroquinoline-2-carboxy-[2-(morpholin-4-yl)ethyl]amide] | – | 61 | 61 | 65 | 67 | 68
16 | CCCOc1ccc(F)c2c(=O)c(-c3ccc(OC)cc3)cn(COP(=O)(O)O)c12 [Example 212, [5-fluoro-3-(4-methoxyphenyl)-4-oxo-8-propoxy-4H-quinolin-1-ylmethyl]monophosphate disodium salt] | – | 46 | 62 | 63 | 70 | 72
17 | CCCOc1ccc(F)c2c(=O)c(-c3cnn(C)c3)cn(COP(=O)(O)O)c12 [Example 222, [5-fluoro-3-(1-methyl-1H-pyrazol-4-yl)-4-oxo-8-propoxy-4H-quinolin-1-ylmethyl]monophosphate disodium salt] | – | 59 | 64 | 66 | 62 | 73

Further lines, with some results ahead:

Row | melting point [°C] | Structure (SMILES) | activity at 0.01 µg/mL [1] [%] | activity at 0.03 µg/mL [1] [%] | activity at 0.1 µg/mL [1] [%] | activity at 0.3 µg/mL [1] [%] | activity at 1 µg/mL [1] [%]
18 | 206 to 208 | CCCOc1ccc(F)c2c(=O)c(-c3ccc(OC)cc3)cn(CCN3CCOCC3)c12 | – | – | – | – | –
19 | 150 to 152 | CCCOc1ccc(F)c2c(=O)c(-c3ccc(OC)cc3)cn(CCC(=O)OCCN3CCN(C)CC3)c12.Cl.Cl | – | – | – | – | –
20 | 72 to 74 | CCCOc1ccc(F)c2c(=O)c(-c3ccc(OC)cc3)cn(CCS(=O)(=O)CCCN3CCN(C)CC3)c12.Cl.Cl | – | – | – | – | –
21 | 135 to 137 | CCCOc1cc2c(c3c(=O)c(-c4ccc(OC)cc4)cn(CCCN4CCOCC4)c13)CCC2 | – | – | – | – | –
22 | 205 to 207 | CCCOc1ccc(F)c2c(=O)c(-c3ccc(OC)cc3)cn(COC(=O)c3ccc(OP(=O)([O-])[O-])cc3)c12.[Na+].[Na+] | – | – | – | – | –
23 | 201 to 203 | CCCOc1cc2c(c3c(=O)c(-c4ccc(OC)cc4)cn(CC(=O)NCCN4CCOCC4)c13)OCCC2 | – | – | – | – | –
24 | 139 to 141 | CCCOc1ccc(F)c2c(=O)c(-c3ccc(OC)cc3)cn(CC(=O)NCCN3CCOCC3)c12 | – | – | – | – | –
25 | 218 to 220 | CCCOc1ccc(F)c2c(=O)c(-c3ccc(OC)cc3)cn(CC(=O)N(C)CCN3CCOCC3)c12 | – | – | – | – | –
26 | 226 to 228 | CCCOc1ccc(F)c2c(=O)c(-c3ccc(OC)cc3)cn(CC(=O)NC3CCNCC3)c12 | – | – | – | – | –
